{"source": "patent US20260102407A1", "about": "“TREATMENT METHODS” (priority 2020, published 2026)", "key": {"[1]": {"system": "plasma levels of IL-1β, IL-2, IL-6, IL-4, IL-10", "assay": "Collagen antibody-induced arthritis, plasma cytokine levels", "format": "in vivo, mouse", "conditions": "CAIA mice; 30 mg/kg"}, "FosB": {"system": "FosB", "assay": "Immunohistochemical staining of rat retina, FosB", "format": "in vivo", "conditions": "lasered rat retinas", "description": "(§1) Rat choroidal laser injury model. Male Brown Norway pigmented rats (8-14 week-old) were anesthetized by an intramuscular injection of Rompun® (xylazine)/Imalgene® (ketamine). Pupils were dilated by instillation of one drop of 0.5% tropicamide before laser burn. Six burns were created in both eyes on Day 0 by applying 170 mW of 532 nm laser light (Viridis laser, Quantel, France) on 75 μm spots around the optic nerve, between the main retinal vessel branches, for 0.1s, through the slit lamp and contact lens. Production of a bubble at the time of laser application confirmed the rupture of Bruch's membrane. […] After anaesthesia, 10% sodium fluorescein (250 μl/100 g body weight) was injected subcutaneously, and ocular fluorescence was recorded 10 min after dye injection. Fluorescein leakage was evaluated on Days 14 and 21 in the angiograms by two examiners masked to the study groups and graded for fluorescein intensity as follows: score 0: no leakage; 1: slightly stained; 2: moderately stained; 3: strongly stained.\n(§2) Immunohistochemical staining of rat retina. […] IOD of positive staining (red chromogen) was assessed for CD31, VEGF-A165, pERK, FosB and VCAM-1 using Image-Pro Plus software (Cybernetics, Bethesda, MD). IOD in IPL and INL was quantified for CD31; OPL to OS for VEGF-A165; INL to ONL for pERK; GCL to OS for FosB; OLM for VCAM-1, using Image-Pro Plus. […]"}, "VCAM-1": {"system": "VCAM-1", "assay": "Western blot, IL-1β-inducible VCAM-1 expression in HMEC-1", "format": "cell-based, human", "procedure": "Western blot analysis with extracts of cells treated with IL-13. HMEC-1 (80-90% confluency) were arrested in serum-free MCDB131 medium (Invitrogen, MD) without any growth factor for 48 h. Cells were treated with 30 μM compound in serum-free medium for 4 h, and incubated with 20 ng/ml IL-1β (Sigma, cat. SRE3083) in serum-free medium with the same concentration of compound for up to 4 h, unless otherwise indicated. Total protein was harvested as previously described using RIPA buffer with protease inhibitors. Proteins were resolved on 4-20% (w/v) SDS-polyacrylamide gradient gels and transferred to Immobilon-P PVDF membranes. […] Chemiluminescence was detected using the Western Lightning Chemiluminescence system and ImageQuant™ LAS 4000 biomolecular imager. Band intensity in images generated with the LAS 4000 using the same settings were quantified by NIH ImageJ."}, "CD31": {"system": "CD31", "assay": "Immunohistochemical staining of rat retina, CD31", "format": "in vivo", "conditions": "lasered rat eyes 21 days after injury", "description": "as §1, §2"}}}
{"smiles": "CCOC(=O)Nc1ccc2c(c1)C(=O)N(CC)c1ccccc1O2", "note": "[BT2, (10-ethyl-11-oxo-10,11-dihydro-dibenzo[b,f][1,4]oxazepin-2-yl)-carbamic acid ethyl ester]", "values": [{"measurement": "plasma level of IL-1β", "setting": "[1]", "value": "reduced plasma levels of IL-1β, IL-2 and IL-6 to normal levels"}, {"measurement": "plasma level of IL-2", "setting": "[1]", "value": "reduced plasma levels of IL-1β, IL-2 and IL-6 to normal levels"}, {"measurement": "plasma level of IL-4", "setting": "[1]", "value": "did not change"}, {"measurement": "plasma level of IL-6", "setting": "[1]", "value": "reduced plasma levels of IL-1β, IL-2 and IL-6 to normal levels"}, {"measurement": "plasma level of IL-10", "setting": "[1]", "value": "did not change"}, {"measurement": "retinal FosB immunostaining", "setting": "FosB", "value": "inhibited retinal FosB immunostaining"}, {"measurement": "IL-1β-inducible VCAM-1 expression (Western blot)", "setting": "VCAM-1; 30 μM, 20 ng/ml IL-1β up to 4 h", "value": "inhibited"}, {"measurement": "inhibition of IL-1β-inducible VCAM-1, potency relative to PD98059", "setting": "VCAM-1; dose escalation 1-30 μM", "value": "more potently than PD98059"}, {"measurement": "inducible CD31 staining in the IPL and INL", "setting": "CD31", "value": "inhibited inducible CD31 staining"}]}
